Results: US20130210765A1, “HYALURONIC ACID CONTAINING PHARMACEUTICAL OR VETERINARY COMPOSITIONS” (priority 2004, published 2013)

Tested on: lameness in horses
Assay: double-blind placebo controlled crossover clinical trial on lameness in horses
Type: in vivo
Protocol: A crossover double blind and randomised study was designed to evaluate the efficacy of GLM lipid extract and HA alone and in combination in the treatment of lameness in horses.
Qualifying horses were initially examined and randomly assigned to receive four capsules of the placebo, or containing 50 mg GLM, or 50 mg Hyaluronate, or a mixture of 50 mg GLM and 50 mg Hyaluronate daily. Randomisation was computer generated in balanced blocks of the four treatment regimes and was crossover in design. No other medications were administered.
Evaluations of arthritic/musculoskeletal signs were carried out by a veterinarian and research assistant at wk 0 and every two weeks thereafter until the end of the trial. All parameters were scored on a scale of 1 to 10 according to severity and symptom improvement where 1 was severe disease symptomology and 10 indicated a disease free condition score and the results are shown in Table 1 and FIG. 4.
Each horse was scored for mobility (average of individual scores for lameness in walking, trotting, turning and any other musculoskeletal abnormality). Individual joints (neck, back, carpus, elbow and shoulder or tarsus, stifle and hip) of each limb were individually scored for degree of pain, swelling, crepitus and reduction in range of movement. Horses were also filmed for gait analysis and scored. Summation of the mobility score and all individual joint scores for each horse comprised their total arthritic/musculoskeletal score.

Hyaluronic acid [Hyaluronate]
mean clinical lameness score, Mid Phase 14 Days (four capsules daily, 14 days, scale 1 (severe) to 10 (disease free), Mean ± SEM): 2.6 ± 0.47^be | mean clinical lameness score, End Phase 28 Days (four capsules daily, 28 days, scale 1 (severe) to 10 (disease free), Mean ± SEM): 2.8 ± 0.48^ef | effect on degree of lameness / locomotory score (in words) (within 2 weeks / 14 days of treatment): little influence on it own
